Measurements published in ChEMBL document CHEMBL5352387, “Synthesis and biological evaluation of tyrosine derivatives as peripheral 5HT2A receptor antagonists for nonalcoholic fatty liver disease” (Eur J Med Chem, 2022).
pIC50: −log10 of the molar value. Activity calls are given as the source filed them. The calls are words filed in the database; no cut-off is given here.

How the values were obtained:
[1] = Drug concentration in plasma of ICR mouse at 5 mg/kg, iv measured at 1 hr; format: ADME, organism-based
[2] = Drug concentration in brain of ICR mouse at 5 mg/kg, iv measured at 1 hr; format: ADME, organism-based; settings: read-out: Ct
[3] = target: T1, 5-hydroxytryptamine receptor 2A (Homo sapiens, UniProt P28223); test: Inhibition of 5HT2A receptor (unknown origin) expressed in HEK293 cells at 1 uM by FLIPR Calcium 6 dye based assay relative to control; format: functional, cell-based
T1 sequence (P28223 whole entry): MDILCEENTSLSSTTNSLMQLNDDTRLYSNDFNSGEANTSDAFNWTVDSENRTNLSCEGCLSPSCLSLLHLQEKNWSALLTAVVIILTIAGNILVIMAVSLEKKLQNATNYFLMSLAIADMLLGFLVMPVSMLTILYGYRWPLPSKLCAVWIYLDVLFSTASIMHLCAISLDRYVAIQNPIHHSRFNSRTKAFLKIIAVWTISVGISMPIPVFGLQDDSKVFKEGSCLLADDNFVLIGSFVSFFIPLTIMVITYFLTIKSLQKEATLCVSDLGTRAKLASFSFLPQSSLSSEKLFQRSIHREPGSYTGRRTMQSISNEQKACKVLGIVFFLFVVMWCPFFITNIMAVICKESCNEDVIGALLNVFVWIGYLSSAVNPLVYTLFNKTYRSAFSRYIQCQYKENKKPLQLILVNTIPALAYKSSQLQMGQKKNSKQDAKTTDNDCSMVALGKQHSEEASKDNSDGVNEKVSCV

[4] = target: T2, 5-hydroxytryptamine receptor 1A (Homo sapiens) (UniProt P08908); test: Inhibition of 5HT1A receptor (unknown origin) at 1 uM relative to control
T2 sequence (whole entry): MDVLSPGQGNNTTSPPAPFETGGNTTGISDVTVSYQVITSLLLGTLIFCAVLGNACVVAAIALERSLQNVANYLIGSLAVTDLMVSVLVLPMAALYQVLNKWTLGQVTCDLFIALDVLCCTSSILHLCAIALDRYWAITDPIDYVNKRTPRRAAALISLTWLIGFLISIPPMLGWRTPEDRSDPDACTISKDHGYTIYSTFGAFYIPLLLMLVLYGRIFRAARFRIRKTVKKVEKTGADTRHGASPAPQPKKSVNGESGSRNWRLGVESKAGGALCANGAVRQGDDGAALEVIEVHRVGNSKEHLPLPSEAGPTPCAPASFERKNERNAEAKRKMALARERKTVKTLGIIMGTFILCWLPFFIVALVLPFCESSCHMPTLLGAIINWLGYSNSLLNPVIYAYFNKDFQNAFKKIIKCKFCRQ

[5] = test system: Mus musculus; test: Reduction in hepatic steatosis in high fat diet-induced NAFLD C57BL6/J mouse model assessed as reduction in lobular inflammation at 1 mg/kg, ip measured after 8 weeks by H and E staining analysis; format: functional, organism-based
[6] = target: Cytochrome P450 2D6 (Homo sapiens, UniProt P10635); test: Inhibition of CYP2D6 (unknown origin) relative to control; format: ADME
Sequence of Cytochrome P450 2D6 (P10635 whole entry): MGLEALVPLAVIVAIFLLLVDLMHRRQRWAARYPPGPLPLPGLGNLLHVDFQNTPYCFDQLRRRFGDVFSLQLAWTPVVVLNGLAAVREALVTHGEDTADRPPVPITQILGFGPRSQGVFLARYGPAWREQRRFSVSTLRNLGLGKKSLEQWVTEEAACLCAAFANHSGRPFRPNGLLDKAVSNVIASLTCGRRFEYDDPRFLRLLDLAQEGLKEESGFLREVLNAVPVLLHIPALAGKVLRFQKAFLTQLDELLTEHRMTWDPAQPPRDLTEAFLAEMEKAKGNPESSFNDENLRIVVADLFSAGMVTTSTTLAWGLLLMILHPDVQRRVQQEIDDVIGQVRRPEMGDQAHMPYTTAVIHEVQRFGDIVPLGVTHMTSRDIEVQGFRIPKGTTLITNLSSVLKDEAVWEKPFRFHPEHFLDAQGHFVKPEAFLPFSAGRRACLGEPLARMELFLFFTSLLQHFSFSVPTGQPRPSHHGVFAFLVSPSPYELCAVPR

[7] = test system: Mus musculus; test: Reduction in hepatic steatosis in high fat diet-induced NAFLD C57BL6/J mouse model assessed as decrease in size of lipid droplet in brown adipose tissue at 1 mg/kg, ip measured after 8 weeks by H and E staining based analysis; format: functional, organism-based
[8] = test system: Mus musculus; test: Reduction in hepatic steatosis in high fat diet-induced NAFLD C57BL6/J mouse model assessed as reduction in serum cholesterol level at 1 mg/kg, ip measured after 8 weeks; format: functional, organism-based
[9] = target: 5-hydroxytryptamine receptor 4 (Homo sapiens) (UniProt Q13639); test: Inhibition of 5HT4E receptor (unknown origin) at 1 uM relative to control
Sequence of 5-hydroxytryptamine receptor 4 (Homo sapiens) (Q13639 whole entry): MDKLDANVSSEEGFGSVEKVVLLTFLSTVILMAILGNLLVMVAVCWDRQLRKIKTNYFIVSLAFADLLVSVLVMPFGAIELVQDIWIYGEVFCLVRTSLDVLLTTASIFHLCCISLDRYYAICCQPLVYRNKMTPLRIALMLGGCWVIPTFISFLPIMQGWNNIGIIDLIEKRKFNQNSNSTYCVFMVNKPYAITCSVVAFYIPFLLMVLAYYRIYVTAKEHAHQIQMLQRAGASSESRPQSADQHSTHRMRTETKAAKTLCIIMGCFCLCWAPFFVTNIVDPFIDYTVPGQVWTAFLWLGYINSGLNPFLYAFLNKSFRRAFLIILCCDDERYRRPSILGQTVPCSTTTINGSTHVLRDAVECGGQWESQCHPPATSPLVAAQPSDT

[10] = test system: Mus musculus; test: Reduction in hepatic steatosis in high fat diet-induced NAFLD C57BL6/J mouse model assessed as reduction in hepatic triglyceride level at 1 mg/kg, ip measured after 8 weeks by colorimetric assay; format: functional, organism-based
[11] = test system: Mus musculus; test: Reduction in hepatic steatosis in high fat diet-induced NAFLD C57BL6/J mouse model assessed as increase in multilocular adipocytes at 1 mg/kg, ip measured after 8 weeks by H and E staining based analysis; format: functional, organism-based
[12] = target: Cytochrome P450 3A4 (Homo sapiens, UniProt P08684); test: Inhibition of CYP3A4 (unknown origin) relative to control; format: ADME
Sequence of Cytochrome P450 3A4 (P08684 whole entry): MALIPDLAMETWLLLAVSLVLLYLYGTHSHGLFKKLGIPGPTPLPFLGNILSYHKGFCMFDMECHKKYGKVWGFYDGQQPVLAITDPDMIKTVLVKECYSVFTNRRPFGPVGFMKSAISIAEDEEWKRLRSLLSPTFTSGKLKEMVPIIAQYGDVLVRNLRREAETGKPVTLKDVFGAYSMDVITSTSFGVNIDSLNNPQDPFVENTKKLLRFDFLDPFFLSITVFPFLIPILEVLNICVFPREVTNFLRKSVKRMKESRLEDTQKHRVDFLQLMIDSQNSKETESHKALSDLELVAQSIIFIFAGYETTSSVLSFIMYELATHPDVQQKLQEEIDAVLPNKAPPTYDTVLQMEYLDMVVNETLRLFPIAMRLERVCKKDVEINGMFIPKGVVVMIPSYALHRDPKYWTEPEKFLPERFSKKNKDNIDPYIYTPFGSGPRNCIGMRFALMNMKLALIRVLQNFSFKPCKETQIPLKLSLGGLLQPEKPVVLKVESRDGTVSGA

[13] = test system: Mus musculus; test: Reduction in hepatic steatosis in high fat diet-induced NAFLD C57BL6/J mouse model assessed as reduction in serum AST level at 1 mg/kg, ip measured after 8 weeks; format: functional, organism-based
[14] = test system: Mus musculus; test: Reduction in hepatic steatosis in high fat diet-induced NAFLD C57BL6/J mouse model assessed as decrease in size of adipocytes in inguinal white adipose tissue at 1 mg/kg, ip measured after 8 weeks by H and E staining based analysis; format: functional, organism-based
[15] = test system: Mus musculus; test: Reduction in hepatic steatosis in high fat diet-induced NAFLD C57BL6/J mouse model assessed as reduction in adipose tissue inflammation at 1 mg/kg, ip measured after 8 weeks by H and E staining based analysis; format: functional, organism-based
[16] = target: 5-hydroxytryptamine receptor 7 (Homo sapiens) (UniProt P34969); test: Inhibition of 5HT7 receptor (unknown origin) at 1 uM relative to control
Sequence of 5-hydroxytryptamine receptor 7 (Homo sapiens) (P34969 whole entry): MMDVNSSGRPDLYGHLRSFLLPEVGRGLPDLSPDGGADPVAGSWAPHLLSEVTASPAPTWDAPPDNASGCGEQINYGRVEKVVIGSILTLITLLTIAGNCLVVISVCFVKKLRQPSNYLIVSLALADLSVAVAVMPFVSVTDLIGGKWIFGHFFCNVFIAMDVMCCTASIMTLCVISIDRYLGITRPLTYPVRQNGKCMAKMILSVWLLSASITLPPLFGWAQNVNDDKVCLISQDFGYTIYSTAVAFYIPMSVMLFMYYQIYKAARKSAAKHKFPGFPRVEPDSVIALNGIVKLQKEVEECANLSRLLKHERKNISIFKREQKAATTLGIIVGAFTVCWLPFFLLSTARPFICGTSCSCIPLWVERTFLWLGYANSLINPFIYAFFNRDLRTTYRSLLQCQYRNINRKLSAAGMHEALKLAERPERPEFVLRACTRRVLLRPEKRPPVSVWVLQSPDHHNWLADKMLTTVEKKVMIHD

[17] = target: 5-hydroxytryptamine receptor 6 (Homo sapiens) (UniProt P50406); test: Inhibition of 5HT6 receptor (unknown origin) at 1 uM relative to control
Sequence of 5-hydroxytryptamine receptor 6 (Homo sapiens) (P50406 whole entry): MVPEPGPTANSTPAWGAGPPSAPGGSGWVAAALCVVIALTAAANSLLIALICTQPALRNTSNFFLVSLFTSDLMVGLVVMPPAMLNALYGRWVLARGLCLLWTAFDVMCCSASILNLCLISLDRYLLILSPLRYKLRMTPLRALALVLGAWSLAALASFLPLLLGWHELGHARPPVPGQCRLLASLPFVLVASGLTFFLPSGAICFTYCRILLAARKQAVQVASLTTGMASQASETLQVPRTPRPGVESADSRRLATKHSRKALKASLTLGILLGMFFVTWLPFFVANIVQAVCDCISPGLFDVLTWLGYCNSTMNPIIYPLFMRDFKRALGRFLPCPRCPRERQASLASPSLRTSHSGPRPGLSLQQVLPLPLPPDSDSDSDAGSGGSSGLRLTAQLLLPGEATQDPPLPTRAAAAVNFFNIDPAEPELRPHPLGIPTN

[18] = test system: Mus musculus; test: Reduction in hepatic steatosis in high fat diet-induced NAFLD C57BL6/J mouse model assessed as reduction in fat body mass at 1 mg/kg, ip measured after 8 weeks; format: functional, organism-based
[19] = test system: Mus musculus; test: Reduction in hepatic steatosis in high fat diet-induced NAFLD C57BL6/J mouse model assessed as reduction in serum ALT level at 1 mg/kg, ip measured after 8 weeks; format: functional, organism-based
[20] = test system: Mus musculus; test: Reduction in hepatic steatosis in high fat diet-induced NAFLD C57BL6/J mouse model assessed as improved glucose tolerance at 1 mg/kg, ip measured after 8 weeks by glucometer analysis; format: functional, organism-based
[21] = target: 5-hydroxytryptamine receptor 5A (Homo sapiens) (UniProt P47898); test: Inhibition of 5HT5A receptor (unknown origin) at 1 uM relative to control
[22] = target: T1, 5-hydroxytryptamine receptor 2A; test: Inhibition of 5HT2A receptor (unknown origin) expressed in HEK293 cells by FLIPR Calcium 6 dye based assay; format: functional, cell-based
[23] = test system: Mus musculus; test: Reduction in hepatic steatosis in high fat diet-induced NAFLD C57BL6/J mouse model assessed as increase in lean body mass at 1 mg/kg, ip measured after 8 weeks; format: functional, organism-based
[24] = Stability in rat liver microsomes assessed as parent compound remaining measured after 30 mins; format: ADME, Microsome; settings: read-out: Stability
[25] = target: Cytochrome P450 2C19 (Homo sapiens, UniProt P33261); test: Inhibition of CYP2C19 (unknown origin) relative to control; format: ADME
Sequence of Cytochrome P450 2C19 (P33261 whole entry): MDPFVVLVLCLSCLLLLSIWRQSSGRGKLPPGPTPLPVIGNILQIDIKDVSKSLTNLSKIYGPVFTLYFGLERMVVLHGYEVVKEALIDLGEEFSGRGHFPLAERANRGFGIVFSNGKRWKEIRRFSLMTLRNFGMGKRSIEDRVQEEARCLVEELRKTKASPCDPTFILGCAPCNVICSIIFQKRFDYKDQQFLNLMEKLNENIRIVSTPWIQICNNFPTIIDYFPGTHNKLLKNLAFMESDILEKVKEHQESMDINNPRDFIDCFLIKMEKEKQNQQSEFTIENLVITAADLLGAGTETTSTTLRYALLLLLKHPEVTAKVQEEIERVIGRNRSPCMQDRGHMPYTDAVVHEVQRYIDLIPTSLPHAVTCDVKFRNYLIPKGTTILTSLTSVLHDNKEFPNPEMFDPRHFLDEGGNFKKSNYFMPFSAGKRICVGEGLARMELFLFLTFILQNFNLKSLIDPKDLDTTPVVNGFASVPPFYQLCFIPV

[26] = test system: Mus musculus; test: Reduction in hepatic steatosis in high fat diet-induced NAFLD C57BL6/J mouse model assessed as decrease in size of adipocytes in epididymis white adipose tissue at 1 mg/kg, ip measured after 8 weeks by H and E staining based analysis; format: functional, organism-based
[27] = target: Cytochrome P450 2C9 (Homo sapiens, UniProt P11712); test: Inhibition of CYP2C9 (unknown origin) relative to control; format: ADME
Sequence of Cytochrome P450 2C9 (P11712 whole entry): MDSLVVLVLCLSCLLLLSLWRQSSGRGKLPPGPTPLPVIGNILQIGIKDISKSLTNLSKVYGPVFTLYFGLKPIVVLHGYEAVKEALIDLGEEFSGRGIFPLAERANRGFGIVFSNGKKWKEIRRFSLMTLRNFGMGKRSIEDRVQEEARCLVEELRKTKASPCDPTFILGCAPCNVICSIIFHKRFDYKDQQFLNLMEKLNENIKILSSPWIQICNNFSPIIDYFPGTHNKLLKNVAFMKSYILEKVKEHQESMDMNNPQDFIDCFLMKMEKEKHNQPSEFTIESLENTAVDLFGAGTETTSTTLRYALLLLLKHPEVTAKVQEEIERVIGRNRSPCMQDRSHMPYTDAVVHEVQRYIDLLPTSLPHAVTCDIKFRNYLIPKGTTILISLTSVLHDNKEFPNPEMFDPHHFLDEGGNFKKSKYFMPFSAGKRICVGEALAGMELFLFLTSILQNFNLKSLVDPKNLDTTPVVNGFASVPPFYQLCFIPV

[28] = Stability in human liver microsomes assessed as parent compound remaining measured after 30 mins; format: ADME, Microsome; settings: read-out: Stability
[29] = test system: Mus musculus; test: Reduction in hepatic steatosis in high fat diet-induced NAFLD C57BL6/J mouse model at 1 mg/kg, ip measured after 8 weeks; format: functional, organism-based
[30] = target: hERG (Homo sapiens, UniProt Q12809); test: Inhibition of hERG at 10 uM relative to control; format: toxicity
Sequence of hERG (Q12809 whole entry): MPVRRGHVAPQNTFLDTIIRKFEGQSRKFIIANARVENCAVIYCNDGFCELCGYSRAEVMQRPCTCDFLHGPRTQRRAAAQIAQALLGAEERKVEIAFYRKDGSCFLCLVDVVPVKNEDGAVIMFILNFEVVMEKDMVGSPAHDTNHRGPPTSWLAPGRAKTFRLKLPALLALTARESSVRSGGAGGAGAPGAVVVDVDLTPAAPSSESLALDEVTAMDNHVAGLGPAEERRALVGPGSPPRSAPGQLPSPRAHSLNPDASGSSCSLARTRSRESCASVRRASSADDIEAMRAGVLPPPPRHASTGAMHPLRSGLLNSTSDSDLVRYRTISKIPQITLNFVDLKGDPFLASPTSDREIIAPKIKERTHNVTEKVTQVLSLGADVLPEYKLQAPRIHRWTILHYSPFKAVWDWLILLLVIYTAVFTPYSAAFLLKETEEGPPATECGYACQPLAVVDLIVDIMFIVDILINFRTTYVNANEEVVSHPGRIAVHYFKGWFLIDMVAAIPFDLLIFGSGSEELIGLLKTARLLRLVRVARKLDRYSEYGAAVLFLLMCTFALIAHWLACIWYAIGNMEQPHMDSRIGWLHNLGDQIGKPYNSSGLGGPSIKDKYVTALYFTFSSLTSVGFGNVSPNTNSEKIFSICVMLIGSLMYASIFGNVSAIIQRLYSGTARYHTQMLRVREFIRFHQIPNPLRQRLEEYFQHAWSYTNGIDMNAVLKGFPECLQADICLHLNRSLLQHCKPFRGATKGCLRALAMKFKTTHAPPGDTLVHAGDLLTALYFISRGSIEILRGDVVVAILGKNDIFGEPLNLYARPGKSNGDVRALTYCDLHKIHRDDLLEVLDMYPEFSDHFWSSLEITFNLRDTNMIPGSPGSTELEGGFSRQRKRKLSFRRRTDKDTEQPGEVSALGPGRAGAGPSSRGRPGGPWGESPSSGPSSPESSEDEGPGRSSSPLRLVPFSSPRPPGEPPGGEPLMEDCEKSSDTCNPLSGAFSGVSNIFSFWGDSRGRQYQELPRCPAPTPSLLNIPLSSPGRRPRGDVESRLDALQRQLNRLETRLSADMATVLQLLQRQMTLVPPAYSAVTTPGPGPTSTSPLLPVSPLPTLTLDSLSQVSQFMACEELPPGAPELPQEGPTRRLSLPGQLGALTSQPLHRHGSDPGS

[31] = test system: Mus musculus; test: Reduction in hepatic steatosis in high fat diet-induced NAFLD C57BL6/J mouse model assessed as body weight gain at 1 mg/kg, ip measured after 8 weeks; format: functional, organism-based
[32] = target: T3, 5-hydroxytryptamine receptor 2C (Homo sapiens) (UniProt P28335); test: Inhibition of 5HT2C receptor (unknown origin) at 1 uM relative to control
T3 sequence (whole entry): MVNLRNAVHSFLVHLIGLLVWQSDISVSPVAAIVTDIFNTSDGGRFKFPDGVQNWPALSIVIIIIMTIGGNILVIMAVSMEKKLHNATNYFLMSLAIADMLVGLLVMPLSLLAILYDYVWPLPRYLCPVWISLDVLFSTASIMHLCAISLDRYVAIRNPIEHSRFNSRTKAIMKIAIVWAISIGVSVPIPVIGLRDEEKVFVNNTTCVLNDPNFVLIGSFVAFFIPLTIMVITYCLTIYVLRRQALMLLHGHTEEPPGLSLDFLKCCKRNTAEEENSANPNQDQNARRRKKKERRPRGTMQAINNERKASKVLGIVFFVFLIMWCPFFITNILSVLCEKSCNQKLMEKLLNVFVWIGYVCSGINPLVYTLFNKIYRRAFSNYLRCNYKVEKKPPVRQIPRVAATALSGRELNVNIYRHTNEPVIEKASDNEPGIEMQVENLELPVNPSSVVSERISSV

[33] = target: T4, Cytochrome P450 1A2 (Homo sapiens, UniProt P05177); test: Inhibition of CYP1A2 (unknown origin) relative to control; format: ADME
T4 sequence (P05177 whole entry): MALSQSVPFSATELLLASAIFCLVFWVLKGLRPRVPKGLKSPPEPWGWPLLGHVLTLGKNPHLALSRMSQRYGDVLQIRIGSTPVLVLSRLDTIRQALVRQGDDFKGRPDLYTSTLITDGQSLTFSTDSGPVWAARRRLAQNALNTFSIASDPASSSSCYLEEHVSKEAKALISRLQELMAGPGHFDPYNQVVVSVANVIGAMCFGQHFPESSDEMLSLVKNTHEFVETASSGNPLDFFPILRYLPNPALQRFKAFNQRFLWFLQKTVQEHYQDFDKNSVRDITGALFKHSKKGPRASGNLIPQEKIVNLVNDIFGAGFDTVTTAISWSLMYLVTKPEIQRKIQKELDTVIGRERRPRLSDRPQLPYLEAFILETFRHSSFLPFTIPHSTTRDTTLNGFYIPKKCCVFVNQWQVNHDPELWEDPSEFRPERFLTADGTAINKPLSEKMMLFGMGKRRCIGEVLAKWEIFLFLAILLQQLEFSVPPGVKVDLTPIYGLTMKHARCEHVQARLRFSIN

[34] = target: Serotonin 3 (5-HT3) receptor (Homo sapiens) (UniProt P46098+A5X5Y0+O95264+Q70Z44+Q8WXA8); test: Inhibition of 5HT3 receptor (unknown origin) at 1 uM relative to control; format: protein-complex assay
[35] = Stability in mouse liver microsomes assessed as parent compound remaining measured after 30 mins; format: ADME, Microsome; settings: read-out: Stability

For `O=C(O)CCc1ccc(OCCN2CCN(c3nsc4ccccc34)CC2)cc1`, the concentration at 1 h [1] was 0.114 µg/mL, the concentration at 1 h [2] was < 0.0078 µg/mL and the inhibition [3] was 43.4%.
For `N[C@@H](Cc1ccc(OCCN2CCN(c3cccc(Cl)c3Cl)CC2)cc1)C(=O)O`, the inhibition [3] was 43.2%.
Molecule `O=C(O)c1ccc(OCCN2CCN(c3nsc4ccccc34)CC2)cc1` has an inhibition [3] of 33.3%.
Molecule `N[C@@H](Cc1ccc(OCCN2CCC(C(=O)c3ccc(F)cc3)CC2)cc1)C(=O)O` has an inhibition [3] of 35.1%.
For `Cl.Cl.N[C@@H](Cc1ccc(OCCCN2CCC(c3noc4cc(F)ccc34)CC2)cc1)C(=O)O`, the inhibition [4] was 68%, the concentration at 1 h [1] was 0.901 µg/mL and the Activity [5] was “Active”. For the same molecule, the “inhibition (INH)” value [6] was 31.9%, the Activity [7] was “Active” and the Activity [8] was “inactive”. The inhibition [9] was 50.4%, the Activity [10] was “Active” and the Activity [11] was “Active”. For the same molecule, the “inhibition (INH)” value [12] was < 1%, the Activity [13] was “Active” and the Activity [14] was “Active”. The Activity [15] was “Active”, the inhibition [16] was 24% and the inhibition [17] was 4%. For the same molecule, the Activity [18] was “Active”, the Activity [19] was “Active” and the Activity [20] was “Active”. For the same molecule, the inhibition [21] was 16%, the pIC50 [22] was 9.77 and the Activity [23] was “Active”. For the same molecule, the concentration at 1 h [2] was < 0.0078 µg/mL, the remaining at 0.5 h [24] was 98.5% and the “inhibition (INH)” value [25] was < 1%. The Activity [26] was “Active”, the “inhibition (INH)” value [27] was 1.8% and the remaining at 0.5 h [28] was > 99%. For the same molecule, the Activity [29] was “Active”, the inhibition at 10 µM [30] was 30.9% and the Activity [31] was “Active”. For the same molecule, the inhibition [32] was 98%, the “inhibition (INH)” value [33] was 4.3% and the inhibition [34] was 22%. The inhibition [3] was 92% and the remaining at 0.5 h [35] was > 99%.
`O=C(O)Cc1ccc(OCCN2CCN(c3nsc4ccccc34)CC2)cc1` showed an inhibition [3] of 9.53%.
Molecule `N[C@@H](Cc1ccc(OCCCCN2CCC(c3noc4cc(F)ccc34)CC2)cc1)C(=O)O` has a pIC50 [22] of 8.44 and an inhibition [3] of 91.4%.
`N[C@@H](Cc1ccc(OCCN2CCC(c3noc4cc(F)ccc34)CC2)cc1)C(=O)O` gave an inhibition [3] of 74.8%.
`N[C@H](Cc1ccc(OCCN2CCN(c3nsc4ccccc34)CC2)cc1)C(=O)O` gave an inhibition [3] of 53.4%.
In the case of `Cl.Cl.N[C@@H](Cc1ccc(OCCN2CCN(c3nsc4ccccc34)CC2)cc1)C(=O)O`, the concentration at 1 h [1] was 0.165 µg/mL, the concentration at 1 h [2] was < 0.0078 µg/mL and the inhibition [3] was 73.9%.
In the case of `Cl.Cl.N[C@@H](Cc1ccc(OCC(O)CN2CCC(c3noc4cc(F)ccc34)CC2)cc1)C(=O)O` (stereo partly drawn), the concentration at 1 h [1] was 1.23 µg/mL, the pIC50 [22] was 8.67 and the concentration at 1 h [2] was < 0.0078 µg/mL. It also gave an inhibition [3] of 90.8%.
